In patent publication US11617777B2, “Cytotoxic and anti-mitotic compounds, and methods of using the same” (ZYMEWORKS BC INC., priority 2013, dated 2023):
Read-outs that look alike come from different tables or passages of the source.

System: Jurkat cells
Assay: Cytotoxicity of compounds, CellTiter-Glo
Assay type: cell-based, Human
Details: Homo sapiens, Jurkat, read-out: EC50
Description: Cell lines used: Human T-cell leukemia cell line Jurkat (ATCC: TIB-152); HCC1954 (ATCC: CRL. 2338); Human Pancreatic cells lines: AsPC-1 (ATCC: CRL-1682), BxPC-3 (ATCC: CRL.1687), HPAF-II (ATCC: CRL.1997), MiaPaCa2 (ATCC: CRL.1420), PANC-1 (ATCC: CRL.1469), Capan-1 (ATCC: HTB-79), Capan-2 (ATCC: HTB-80) and the Human gastric carcinoma cell line NCI-N87 (ATCC: CRL. 5822); AML-193 (ATCC: CRL.9589), CCRF-CEM (ATCC: CCL-119), DU145 (ATCC: HTB-81), PC-3 (ATCC: CRL.1435), A-431 (ATCC: CRL.1555), HT-29 (ATCC: HTB-38), A-172 (ATCC: CRL.1620), NCI-H358 (ATCC: CRL.5807), A549 (ATCC: CCL-185), Colo-205 (ATCC: CCL-222), MDA-MB-231 (ATCC: HTB-26), OVCAR-3 (ATCC: HTB-161), OV-90 (ATCC: CRL.11732), OE19 (Sigma: 96071721), RT 112/84 (Sigma: 85061106).
On the day prior to adding compounds, HCC1954 AsPC-1, BxPC-3, HPAF-II, MiaPaCa2, PANC-1, Capan-1, Capan-2 and NCI-N87 cells were added to opaque-walled 96-well tissue culture-treated microtiter plates using complete growth medium at a density of 2500 cells/100 microlitre (uL) of medium. These adherant cell lines cells were incubated for one night at 37° C./5% CO2 to allow the cells to attach to the microtiter plate surface. On the day that compounds were added, Jurkat cells are added to separate 96-well microtiter plates at 2500 cells/100 uL using the same growth medium as HCC1954. Compound were first serially diluted using dimethyl sulfoxide, and then the prepared dilutions are added to complete growth medium at five-times the final concentration—compounds were then titrated 1:3, eight steps. A control with no compound (growth medium alone) was included on each microtiter plate in sextuplicate. The prepared compounds titrations were added (twenty-five uL/well) in triplicate. The cells and compound titrations were incubated at 37° C./5% CO2 for three nights. After the incubation, cell viability is measured using CellTiter-Glo® reagent by adding thirty uL of prepared CellTiter-Glo® to each assay well. The assay is incubated for at least twenty minutes in the dark prior to measuring emitted luminescence using a microplate luminometer (500 ms integration time). The collected relative luminescence units (RLU) are converted to % cytotoxicity using the Growth medium alone control mentioned above (% Cytotoxicity=1−[Well RLU/average medium alone control RLU]).
GraphPad Prism was used for generation of EC50 values using three parameter non-linear regression curve fitting.

[1] = Table 3, Cytotoxicity of Compounds on Jurkat Cells
[2] = Table 6, Compound Cytotoxicity on Jurkat

SMILES | EC50 [1] [nM] | EC50 [2] [nM]
CN[C@H](C(=O)N[C@H](C(=O)N1CCCCC1C=C(C)C(=O)NS(=O)(=O)c1ccc(CS)cc1)C(C)(C)C)C(C)(C)c1ccccc1 (mixture of isomers) [Compound 118, (S)—N—((S)-1-(2-(3-(4-(mercaptomethyl)phenylsulfonamido)-2-methyl-3-oxoprop-1-enyl)piperidin-1-yl)-3,3-dimethyl-1-oxobutan-2-yl)-3-methyl-2-(methylamino)-3-phenylbutanamide] | 13 | –
CN[C@H](C(=O)N[C@H](C(=O)N(C)[C@H](/C=C(\C)C(=O)NS(=O)(=O)c1c(C)cc(C)cc1C)C(C)C)C(C)(C)C)C(C)(C)c1ccccc1 [Compound 12, (S,E)-N-(mesitylsulfonyl)-2,5-dimethyl-4-((S)—N,3,3-trimethyl-2-((S)-3-methyl-2-(methylamino)-3-phenylbutanamido)butanamido)hex-2-enamide] | 0.03 | –
CN[C@H](C(=O)N[C@H](C(=O)N(C)[C@H](/C=C(\C)C(=O)NS(=O)(=O)c1ccc(OC(F)(F)F)cc1)C(C)C)C(C)(C)C)C(C)(C)c1ccccc1 [Compound 13, (S,E)-2,5-dimethyl-N-(4-(trifluoromethoxy)phenylsulfonyl)-4-((S)—N,3,3-trimethyl-2-((S)-3-methyl-2-(methylamino)-3-phenylbutanamido)butanamido)hex-2-enamide] | 0.038 | 1.51
CN[C@H](C(=O)N[C@H](C(=O)N(C)[C@H](/C=C(\C)C(=O)NS(=O)(=O)c1c(C(C)C)cc(C(C)C)cc1C(C)C)C(C)C)C(C)(C)C)C(C)(C)c1ccccc1 [Compound 15, (S,E)-2,5-dimethyl-N-(2,4,6-triisopropylphenylsulfonyl)-4-((S)—N,3,3-trimethyl-2-((S)-3-methyl-2-(methylamino)-3-phenylbutanamido)butanamido)hex-2-enamide] | 7.6 | –
CN[C@H](C(=O)N[C@H](C(=O)N(C)[C@H](/C=C(\C)C(=O)NS(=O)(=O)c1ccc(C(C)(C)C)cc1)C(C)C)C(C)(C)C)C(C)(C)c1ccccc1 [Compound 16, (S,E)-N-(4-tert-butylphenylsulfonyl)-2,5-dimethyl-4-((S)—N,3,3-trimethyl-2-((S)-3-methyl-2-(methylamino)-3-phenylbutanamido)butanamido)hex-2-enamide] | 0.041 | –
CN[C@H](C(=O)N[C@H](C(=O)N(C)[C@H](/C=C(\C)C(=O)NS(=O)(=O)c1ccc(Cl)cc1)C(C)C)C(C)(C)C)C(C)(C)c1ccccc1 [Compound 17, (S,E)-N-(4-chlorophenylsulfonyl)-2,5-dimethyl-4-((S)—N,3,3-trimethyl-2-((S)-3-methyl-2-(methylamino)-3-phenylbutanamido)butanamido)hex-2-enamide] | 0.325 | –
CN[C@H](C(=O)N[C@H](C(=O)N(C)[C@H](/C=C(\C)C(=O)NS(=O)(=O)c1cccc(C#N)c1)C(C)C)C(C)(C)C)C(C)(C)c1ccccc1 [Compound 18, (S,E)-N-(3-cyanophenylsulfonyl)-2,5-dimethyl-4-((S)—N,3,3-trimethyl-2-((S)-3-methyl-2-(methylamino)-3-phenylbutanamido)butanamido)hex-2-enamide] | 1.36 | –
CN[C@H](C(=O)N[C@H](C(=O)N(C)[C@H](/C=C(\C)C(=O)NS(=O)(=O)c1ccccc1[N+](=O)[O-])C(C)C)C(C)(C)C)C(C)(C)c1ccccc1 [Compound 19, (S,E)-2,5-dimethyl-N-(2-nitrophenylsulfonyl)-4-((S)—N,3,3-trimethyl-2-((S)-3-methyl-2-(methylamino)-3-phenylbutanamido)butanamido)hex-2-enamide] | 0.152 | –
CN[C@H](C(=O)N[C@H](C(=O)N(C)[C@H](/C=C(\C)C(=O)NS(=O)(=O)c1ccccc1)C(C)C)C(C)(C)C)C(C)(C)c1ccccc1 [Compound 25, (S,E)-2,5-dimethyl-N-(phenylsulfonyl)-4-((S)—N,3,3-trimethyl-2-((S)-3-methyl-2-(methylamino)-3-phenylbutanamido)butanamido)hex-2-enamide] | 0.05 | –
CN[C@H](C(=O)N[C@H](C(=O)N(C)[C@H](/C=C(\C)C(=O)NS(=O)(=O)NCc1ccccc1F)C(C)C)C(C)(C)C)C(C)(C)c1ccccc1 [Compound 26, (S,E)-N—(N-(2-fluorobenzyl)sulfamoyl)-2,5-dimethyl-4-((S)—N,3,3-trimethyl-2-((S)-3-methyl-2-(methylamino)-3-phenylbutanamido)butanamido)hex-2-enamide] | 0.105 | –
CN[C@H](C(=O)N[C@H](C(=O)N(C)[C@H](/C=C(\C)C(=O)NS(=O)(=O)N1CCCCC1)C(C)C)C(C)(C)C)C(C)(C)c1ccccc1 [Compound 27, (S,E)-2,5-dimethyl-N-(piperidin-1-ylsulfonyl)-4-((S)—N,3,3-trimethyl-2-((S)-3-methyl-2-(methylamino)-3-phenylbutanamido)butanamido)hex-2-enamide] | 0.157 | –
CN[C@H](C(=O)N[C@H](C(=O)N(C)[C@H](/C=C(\C)C(=O)NS(=O)(=O)c1ccc(Br)cc1)C(C)C)C(C)(C)C)C(C)(C)c1ccccc1 [Compound 29, (S,E)-N-(4-bromophenylsulfonyl)-2,5-dimethyl-4-((S)—N,3,3-trimethyl-2-((S)-3-methyl-2-(methylamino)-3-phenylbutanamido)butanamido)hex-2-enamide] | 0.121 | –
CN[C@H](C(=O)N[C@H](C(=O)N(C)[C@H](/C=C(\C)C(=O)NS(=O)(=O)c1ccc2ccccc2c1)C(C)C)C(C)(C)C)C(C)(C)c1ccccc1 [Compound 30, (S,E)-2,5-dimethyl-N-(naphthalen-2-ylsulfonyl)-4-((S)—N,3,3-trimethyl-2-((S)-3-methyl-2-(methylamino)-3-phenylbutanamido)butanamido)hex-2-enamide] | 0.109 | –
CN[C@H](C(=O)N[C@H](C(=O)N(C)[C@H](/C=C(\C)C(=O)NS(=O)(=O)NCc1ccccc1C(F)(F)F)C(C)C)C(C)(C)C)C(C)(C)c1ccccc1 [Compound 32, (S,E)-2,5-dimethyl-N—(N-(2-(trifluoromethyl)benzyl)sulfamoyl)-4-((S)—N,3,3-trimethyl-2-((S)-3-methyl-2-(methylamino)-3-phenylbutanamido)butanamido)hex-2-enamide] | 0.265 | –
CCCCC(C)S(=O)(=O)NC(=O)/C(C)=C/[C@H](C(C)C)N(C)C(=O)[C@@H](NC(=O)[C@@H](NC)C(C)(C)c1ccccc1)C(C)(C)C (stereo partly drawn) [Compound 33, (4S,E)-N-(hexan-2-ylsulfonyl)-2,5-dimethyl-4-((S)—N,3,3-trimethyl-2-((S)-3-methyl-2-(methylamino)-3-phenylbutanamido)butanamido)hex-2-enamide] | – | 0.636
CN[C@H](C(=O)N[C@H](C(=O)N(C)[C@H](/C=C(\C)C(=O)NS(=O)(=O)CCOC)C(C)C)C(C)(C)C)C(C)(C)c1ccccc1 [Compound 34, (S,E)-N-(2-methoxyethylsulfonyl)-2,5-dimethyl-4-((S)—N,3,3-trimethyl-2-((S)-3-methyl-2-(methylamino)-3-phenylbutanamido)butanamido)hex-2-enamide] | 0.2 | –
CN[C@H](C(=O)N[C@H](C(=O)N(C)[C@H](/C=C(\C)C(=O)NS(=O)(=O)CC1CCCC1)C(C)C)C(C)(C)C)C(C)(C)c1ccccc1 [Compound 35, (S,E)-N-(cyclopentylmethylsulfonyl)-2,5-dimethyl-4-((S)—N,3,3-trimethyl-2-((S)-3-methyl-2-(methylamino)-3-phenylbutanamido)butanamido)hex-2-enamide] | – | 0.832
CN[C@H](C(=O)N[C@H](C(=O)N(C)[C@H](/C=C(\C)C(=O)NS(=O)(=O)Cc1ccccc1)C(C)C)C(C)(C)C)C(C)(C)c1ccc(N=[N+]=[N-])cc1 [Compound 42, (S,E)-4-((S)-2-((S)-3-(4-azidophenyl)-3-methyl-2-(methylamino)butanamido)-N,3,3-trimethylbutanamido)-N-(benzylsulfonyl)-2,5-dimethylhex-2-enamide] | 0.165 | –
CN[C@H](C(=O)N[C@H](C(=O)N(C)[C@H](/C=C(\C)C(=O)NS(=O)(=O)C1CCCCC1)C(C)C)C(C)(C)C)C(C)(C)c1ccccc1 [Compound 44, (S,E)-N-(cyclohexylsulfonyl)-2,5-dimethyl-4-((S)—N,3,3-trimethyl-2-((S)-3-methyl-2-(methylamino)-3-phenylbutanamido)butanamido)hex-2-enamide] | 0.114 | 1.48
